The test system of test [1] is Actinomyces naeslundii PK29/Streptococcus oralis C104. The test is described as follows: reversal of coaggregation, visual score. Type of test: cell-based. Further details: key to coaggregation score without sugar: *: Coaggregations were reversed by both D-galactose and D-tagatose. As to conditions: for coaggregation score without sugar: pair Cl04/PK29, coaggregation score 4 without sugar; for coaggregation score: pair PK29/C104, water score 4, scale 0 no visible to 4 maximum coaggregation. As for the experimental part: (§1) Fifteen oral isolates, including both early colonizers (Streptococcus and Actinomyces) and late colonizers (Fusobacterium, Porphyromonas, Prevotella, Veillonella, Capnocytophaga, and Actinobacillus), were tested for their ability to coaggregate with each other, followed by testing for the reversal of coaggregation by the addition of D-tagatose. Bacterial strains used were of human gingival crevice origin. The coaggregation was examined visually by a scoring system ranging from 0 for no visible coaggregation to 4 for maximum coaggregation [Cisar J. O., Kolenbrander P. E., and McIntire F. C., “Specificity of coaggregation reactions between human oral streptococci and strains of Actinomyces viscosus or Actinomyces naeslundii”, Infect. Immun., 24:742–752. 1979]. D-Tagatose, at a concentration of less than 750 mM, completely reversed the coaggregation of 17 (60%) of 28 strong coaggregating pairs (with a coaggregation score of 2 or higher) tested. […] These D-tagatose sensitive coaggregations were D-galactose reversible as well.
(§2) Pairs of various species of oral bacteria were tested for coaggregation, and for reversal of coaggregation when D-tagatose or D-galactose was administered.

Another test deals with oral bacteria. Particulars: known from literature; cited from earlier work.
For test [2], the system named is Fusobacterium nucleatum PK1594/Capnocytophaga ochracea 25. The test is described as follows: reversal of coaggregation, visual score. Type of test: cell-based. Further details: key: *: Coaggregations were reversed by both D-galactose and D-tagatose. Particulars: pair PK1594/Capno 25; coaggregation score 1 without sugar. As for the experimental part: as §1, §2
In test [3] the test system is Prevotella loescheii PK1295/Streptococcus oralis C104. The test is described as follows: reversal of coaggregation, visual score. Type of test: cell-based. Further details: key: *: Coaggregations were reversed by both D-galactose and D-tagatose. As for the experimental part:
as §1, §2

The test system of test [4] is Prevotella loescheii PK1295/Streptococcus oralis SO34. The test is described as follows: reversal of coaggregation, visual score. Further details: key: *: Coaggregations were reversed by both D-galactose and D-tagatose. Type of test: cell-based. As for the experimental part:
as §1, §2

Test [5] has as its system biofilm on the heart valve. The test is described as follows: prophylaxis against prosthetic valve endocarditis (Example 5). Type of test: in vivo, human. As to conditions: one patient; 10 grams with each of three daily meals, three days before until one week after surgery. An excerpt:
An adult patient requires removal of their infected mitral valve and its replacement with a prosthetic valve. One of the principal hazards of such an operation is that the valve region of the heart will become infected, frequently with streptococci that form a biofilm protecting internal microorganisms from antibiotics, and also permitting such organisms to develop increasing resistance. In order to prevent the buildup of a biofilm infection, the physician places their patient on tagatose treatment for three days prior to the surgery. On each such day, the patient consumes 10 grams of D-tagatose with each of their three daily meals. The resulting D-tagatose blood level is sufficient to preclude the formation of a biofilm on the heart valve. The treatment is continued until one week after the operation and the patient is well on the road to recovery.

Test [6] relates to staphylococcus lesion of the leg. The test is described as follows: D-tagatose enhancing antibiotic activity (Example 4). The format is in vivo, human. As to conditions: one patient; five grams with each of three meals daily plus oral penicillin; in the course of a week. The source says: A patient with a staphylococcus lesion of the leg is placed on oral penicillin by their physician. […] The formation of plaque in the infected region protects the interior microorganisms from the antibiotic coursing through the bloodstream, and the plaque organisms develop increased resistance. The physician prescribes five grams of D-tagatose be taken with each of three meals daily, along with continued taking of the penicillin.

The nature of test [7]: prevention of stroke (Example 6). Type of test: in vivo, human. Particulars: one patient with high blood pressure; 5 grams with each of three daily meals. An excerpt: A patient has gradually developed high blood pressure over the years. Their doctor places them on a blood pressure medicine when their pressure reaches 135/90 mm Hg. Despite gradual increases in dosage of the medicine, and trials of new medicines, over time their blood pressure continues to increase until reaching 145/100 mm Hg. At this point the physician fears the possibility of a stroke.

In test [8] the test system is total bacteria and coliform. The test is described as follows: sterilization of food-handling machinery, wash before Clean-In-Place (Example 7). As to conditions: 200 mM in sterile water run through equipment immediately prior to CIP. As for the experimental part:
A cheese-making plant processes raw milk into cheese. The equipment includes many tubes, tubules, pipes and other surfaces that come in direct contact with the milk. Between runs, standard “Clean-In-Place” (CIP) operations are performed in which acid and oxidants are coursed through the equipment to contact all surfaces and are then washed out with sterile water. However, the formation of microbial plaques protects the microorganisms in the interiors of the plaques, and some survive the CIP. To overcome this problem, an initial step is added to the CIP whereby a stream of 200 mM D-tagatose in sterile water is run through the equipment, contacting all surfaces, immediately prior to instituting the CIP. […] Accordingly, the D-tagatose wash is made part of the CIP.

For a further test, the system named is dental plaque. The test is described as follows: D-tagatose in foods to control dental plaque (Example 3). The format is in vivo, human. As to conditions: third monthly check-up. The source says:
Forty subjects, half male, half female, ranging from 4 to 80 years in age, daily consume foodstuffs, such as cakes, cookies, pies, hard candy, hot and cold cereals, cold fruit drinks, iced tea, coffee and tea, that are sweetened with conventional sweeteners including sucrose and high fructose corn syrup (HFCS). After several monthly check-ups, these subjects are found to have high dental plaque indices, and many of them are diagnosed with plaque-related oral diseases. At this point, the test foodstuffs are switched such that D-tagatose is used as a one-for-one replacement for the table sugar and HFCS previously used. No other changes are made in the test regimen.

Setting [9] is: pair Cl04/PK1295, coaggregation score 4 without sugar.
Setting [10] is: pair SO34/PK1295, coaggregation score 4 without sugar.

SMILES strings stand for the structures.

With `O=C[C@H](O)[C@@H](O)[C@@H](O)[C@H](O)CO` [D-Galactose], the “coaggregation score without sugar” value in test [1] is 4*; in test [2], 1*. In addition, the coaggregation score in test [1] (sugar 143 mM) is 1; in [3] (setting [9]), 4*; in test [3] (pair PK1295/C104, sugar 143 mM, water score 4, scale 0 no visible to 4 maximum coaggregation), 1; in [4] (pair PK1295/SO34, sugar 143 mM, water score 4, scale 0 no visible to 4 maximum coaggregation), 0; in [4] (setting [10]) it was 4*. The “reversal of coaggregations that would otherwise form dental plaque” value in the test with oral bacteria was “reverse the coaggregations of oral bacteria”.

With `O=C(CO)[C@@H](O)[C@@H](O)[C@H](O)CO` [D-Tagatose], the “infection after prosthetic valve replacement” value in test [5] is on record as “Infection has been avoided”. For the same molecule, in test [6], the “outcome of staphylococcus lesion” value is reported as “the lesion disappears”. In addition, the entries for the “coaggregation score without sugar” value in test [1] and in test [2] were 4* and 1*, respectively. Moreover, the coaggregation score in [1] (sugar 750 mM) is on record as 1; in test [3] (setting [9]), 4*; in test [3] (pair PK1295/C104, sugar 750 mM, water score 4, scale 0 no visible to 4 maximum coaggregation) it was 2; in [4] (pair PK1295/SO34, sugar 750 mM, water score 4, scale 0 no visible to 4 maximum coaggregation), 1; in test [4] (setting [10]), 4*. Moreover, the risk of stroke result in [7] is recorded as “significantly reduced”. Moreover, the “total bacteria and coliform counts in cheese-making equipment” value in test [8] is “reducing the total bacteria and the coliform counts to acceptable regulatory levels”. The plaque indices result in the test with dental plaque (forty subjects, D-tagatose one-for-one replacement for table sugar and HFCS in foodstuffs) was “significantly lowered”. In addition, in the test with dental plaque (subjects who formerly exhibited disease), the plaque-related oral diseases result is reported as “complete or nearly complete recovery”.
